From the supplement of paper PMC10784567
± gives the standard deviation of the averaged measurements.

Compound: C=C1C[C@H]2C=Nc3cc(OCCCCCOc4cc5c(cc4OC)C(=O)N4CC(=C)C[C@H]4C=N5)c(OC)cc3C(=O)N2C1 [SG2057]
Experiment: absolute IC50 (cell viability, CellTiter-Glo); higher = less potent
Conditions: treatment time: 3 days
Protocol: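 Large cancer cell line panel screens in 384-well plates. Cells were treated for 3 days with a 9-point dose titration of the free PBD dimer SG2057; viability was read with CellTiter-Glo. Absolute IC50 came from a four-parameter Hill fit normalised to the median of vehicle (DMSO) wells. Several independent screens (projects) per cell line are averaged; values in µM, lowest-dose floor about 1.524e-5 µM.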

Row | Test System | absolute IC50
1 | HCC1482 | 0.173 nM
2 | SK-N-AS | 0.187 nM
3 | Toledo | 0.279 ± 0.28 nM
4 | SK-MEL-31 | 3.78 nM
5 | KPP14388 | 0.96 nM
6 | HCC2218 | 1.16 nM
7 | GOTOP3 | 0.217 nM
8 | NCI-H820 | 1.48 nM
9 | NCI-H2110 | 0.296 ± 0.18 nM
10 | UACC-62 | 0.77 ± 0.36 nM
11 | LA-4 | 1.59 nM
12 | AMO-1 | 0.409 ± 0.15 nM
13 | RMUG-S | 1.92 ± 0.051 nM
14 | SNU-719 | 3.72 ± 4 nM
15 | PEO1 | 0.538 ± 0.19 nM
16 | TOV-21G | 0.261 nM
17 | 4498-1636 Mel-nBR1 | 0.565 nM
18 | EB-3 | 0.637 ± 0.85 nM
19 | MOLM-16 | 0.27 ± 0.29 nM
20 | SKG-IIIb | 1.79 nM
21 | SCLC-22H | 0.905 nM
22 | MFM-223 | 0.743 ± 0.14 nM
23 | COLO 320HSR | 1.9 nM
24 | HCC3418 | 0.0218 nM
25 | SNU-668 | 0.573 nM

Row | Test System | absolute IC50
26 | HCC2688 | 0.282 nM
27 | RERF-LC-OK | 0.729 ± 1 nM
28 | MDA-MB-436 | 0.327 ± 0.2 nM
29 | HCC1937 | 4.67 ± 4.4 nM
30 | HEC-1-A | 3.86 nM
31 | CHP-212 | 0.105 nM
32 | HT-115 | 1.59 ± 0.21 nM
33 | C2BBe1 | 7.31 ± 3.8 nM
34 | HCC60 (NCI-H23) | 0.268 nM
35 | HCC2935 | 5.29 ± 3.4 nM
36 | NCI-H1975 (MB) | 0.206 nM
37 | RL95-2 | 1.9 nM
38 | 1624-17147 (Tumor A) | 1.27 nM
39 | SBC-7 | 0.53 nM
40 | OVCAR433 | 0.462 ± 0.47 nM
41 | KP-N-YN | 0.0159 nM
42 | 786-O | 1.24 ± 1.8 nM
43 | A172 | 0.554 nM
44 | NCI-H322T | 0.912 nM
45 | HCC1010 | 0.134 ± 0.12 nM
46 | HEC-59 | 0.472 nM
47 | BE(2)-M17 | 0.494 nM
48 | Hs 746T | 1.81 ± 3.4 nM
49 | HCC515 | 0.134 ± 0.17 nM
50 | IGR-37 | 0.339 ± 0.47 nM

Row | Test System | absolute IC50
51 | K-562 | 0.617 ± 0.68 nM
52 | SK-BR-3 | 0.69 ± 0.71 nM
53 | CaR-1 | 0.535 ± 0.21 nM
54 | CT26.WT | 5.3 nM
55 | MCF 10A AKT2 -/- (Sigma) | 2.14 nM
56 | PA-TU-8988S | 52.1 nM
57 | HCC4017 | 0.193 nM
58 | NCI-H650 | 2.97 ± 3.3 nM
59 | COLO 704 | 3.36 ± 2.6 nM
60 | Hep G2 | 2.2 nM
61 | HCC597 | 6.01 nM
62 | MR1-3 | 0.256 nM
63 | CCF-STTG1 | 2.87 nM
64 | NCI-H1395 | 1.66 nM
65 | HEC-151 | 0.352 nM
66 | B16-F10 | 1.01 nM
67 | Hs 895.T | 7.53 nM
68 | AN3 CA | 1.45 nM
69 | SH-SY5Y | 0.142 nM
70 | HeLa | 1.8 nM
71 | NB-1 | < 0.0152 nM
72 | SW 900 | 3.18 nM
73 | PK-45H | 1.2 ± 0.94 nM
74 | SK-MEL-2 | 1.16 ± 0.55 nM
75 | NCI-H2122 | 2.98 ± 1.3 nM

Row | Test System | absolute IC50
76 | KYSE-30 | 0.368 nM
77 | COLO 201 | 0.782 nM
78 | Li-7 | 4.51 nM
79 | RERF-LC-MS | 0.212 ± 0.15 nM
80 | JVM-2 | 0.374 ± 0.48 nM
81 | NCI-H2722 | 0.343 nM
82 | NCI-H187 | 0.1 nM
83 | MG-63 | 0.284 nM
84 | SNU-387 | 5.76 nM
85 | KP4 | 0.251 ± 0.14 nM
86 | PK-45P | 6.29 ± 1.9 nM
87 | MDA-MB-157 | 1.86 ± 1.7 nM
88 | ASH-3 | 0.925 nM
89 | Calu-6 | 6.78 nM
90 | SNU-1 | 1.89 nM
91 | T84 | 2.92 ± 2.4 nM
92 | PC-9 | 5.48 nM
93 | LUDLU-1 | 9.43 nM
94 | CAMA-1 | 5.02 nM
95 | KMM-1 | 0.515 ± 0.079 nM
96 | VP229 | 3 ± 3.4 nM
97 | KNS-81 | 0.189 nM
98 | KPP14388 LN | 0.49 nM
99 | NCI-H1734 | 0.237 nM
100 | HSC-5 | 0.621 nM

Row | Test System | absolute IC50
101 | EBC-1 | 0.876 nM
102 | KMS-27 | 0.164 ± 0.0027 nM
103 | SW 837 | 4.01 ± 0.21 nM
104 | 1624-17095 (Tumor C) | 0.777 nM
105 | COR-L88 | 5.79 nM
106 | SK-MEL-1 | 1.11 ± 0.28 nM
107 | NCI-N87 | 0.403 ± 0.11 nM
108 | BICR 10 | 0.421 nM
109 | HLF | 0.503 ± 0.72 nM
110 | OvCA 429 | 0.139 ± 0.067 nM
111 | NCI-H716 | 6.9 ± 3.7 nM
112 | NB-4 | 0.29 nM
113 | HL-60 | 5.24 nM
114 | JC | 0.463 nM
115 | NCI-H2595 | 2.2 ± 1.9 nM
116 | MOLP-8 | 0.212 ± 0.014 nM
117 | NCI-H2444 | 5.49 nM
118 | OCI-M2 | 0.275 ± 0.0079 nM
119 | NCI-H889 | 1.32 nM
120 | LCLC-103H | 1.11 ± 1.2 nM
121 | NCI-H727 | 6.75 nM
